# Key:
# [1] = biological target: T1, Adenosine receptor A2b (Homo sapiens) (UniProt P29275); assay: Displacement of [3H]DPCPX from recombinant human adenosine A2B receptor expressed in HEK293 cells at 0.01 uM
# T1 sequence (whole entry): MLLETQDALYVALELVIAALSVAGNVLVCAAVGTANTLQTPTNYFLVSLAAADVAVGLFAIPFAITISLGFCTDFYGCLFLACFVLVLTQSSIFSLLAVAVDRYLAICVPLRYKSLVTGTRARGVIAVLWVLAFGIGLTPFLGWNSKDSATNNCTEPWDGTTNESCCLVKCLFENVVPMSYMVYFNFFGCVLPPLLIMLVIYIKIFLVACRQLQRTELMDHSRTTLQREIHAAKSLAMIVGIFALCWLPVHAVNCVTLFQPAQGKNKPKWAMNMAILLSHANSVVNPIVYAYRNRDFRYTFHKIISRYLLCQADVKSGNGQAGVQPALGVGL
# [2] = biological target: T1, Adenosine receptor A2b (Homo sapiens); assay: Displacement of [3H]DPCPX from recombinant human adenosine A2B receptor expressed in HEK293 cells at 0.1 uM; format: cell-based
# Adenosine receptor A2a [3] = biological target: T2, Adenosine receptor A2a (Homo sapiens, UniProt P29274)
# Description: Binding affinity to recombinant human adenosine A2A receptor
# Adenosine receptor A2a [4] = biological target: T2, Adenosine receptor A2a; assay: Displacement of [3H]ZM-241385 from recombinant human adenosine A2A receptor expressed in HeLa cells at 0.1 uM
# Adenosine receptor A2b = biological target: T3, Adenosine receptor A2b (Homo sapiens, UniProt P29275)
# T3 sequence (P29275 whole entry): T1 sequence (whole entry)
# Description: Binding affinity to recombinant human adenosine A2B receptor
# T2 sequence (P29274 whole entry): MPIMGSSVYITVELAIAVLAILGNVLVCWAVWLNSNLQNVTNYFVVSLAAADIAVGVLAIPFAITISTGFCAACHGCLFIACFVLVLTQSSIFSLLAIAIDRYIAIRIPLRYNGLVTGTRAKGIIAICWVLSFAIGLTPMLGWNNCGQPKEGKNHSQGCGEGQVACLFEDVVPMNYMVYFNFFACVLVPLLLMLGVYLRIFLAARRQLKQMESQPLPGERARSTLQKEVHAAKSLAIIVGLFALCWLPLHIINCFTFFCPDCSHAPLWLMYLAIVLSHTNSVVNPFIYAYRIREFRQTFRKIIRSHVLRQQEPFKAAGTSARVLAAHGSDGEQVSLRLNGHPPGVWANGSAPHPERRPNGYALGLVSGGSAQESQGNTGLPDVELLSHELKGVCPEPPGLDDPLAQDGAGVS
SMILES,inhibition [1] [%],inhibition [2] [%],Ki (Adenosine receptor A2a [3]) [µM],inhibition (Adenosine receptor A2a [4]) [%],Ki (Adenosine receptor A2b) [µM]
CCCn1c(=O)c2[nH]c(-c3ccc(OCC(=O)Nc4ccc(C(=O)NCCc5ccc(OC)cc5)cc4)cc3)cc2n(CCC)c1=O,21,74,0.427,13,0.0123
CCn1c(=O)c2[nH]c(-c3ccc(OCC(=O)Nc4ccc(C#N)cc4)cc3)cc2n(CC)c1=O,20,79,0.12,2,0.0135
CCCn1c(=O)c2[nH]c(-c3ccc(OC(CC)C(=O)Nc4ccc(F)cc4)cc3)cc2n(CCC)c1=O (stereo not given),68,100,0.0191,88,0.00479
CC(NC(=O)COc1ccc(-c2cc3c([nH]2)c(=O)n(C)c(=O)n3C)cc1)c1ccccc1 (stereo not given),20,63,0.245,13,0.0275
CCCn1c(=O)c2[nH]c(-c3ccc(N(C=O)CC(=O)Nc4ccc(Br)cc4)cc3)cc2n(CCC)c1=O,48,93,0.0355,90,0.00776
CCCn1c(=O)c2[nH]c(-c3ccc(OCC(=O)Nc4ccc(F)cc4)cc3)c(Cl)c2n(CCC)c1=O,10,69,0.0407,54,0.0275
CCCn1c(=O)c2[nH]c(-c3ccc(OCC(=O)Nc4ccc(OCc5ccccc5)cc4)cc3)cc2n(CCC)c1=O,49,76,0.0186,60,0.00891
Cn1c(=O)c2[nH]c(-c3ccc(OCC(=O)NCc4ccccc4)cc3)cc2n(C)c1=O,12,66,0.182,25,0.0513
CCCn1c(=O)c2[nH]c(-c3ccc(OCC(=O)Nc4ccc(-c5ccccc5)cc4)cc3)cc2n(CCC)c1=O,40,80,0.0692,36,0.0162
CCCn1c(=O)c2[nH]c(-c3ccc(OCC(=O)Nc4ccc(OC(F)(F)F)cc4)cc3)cc2n(CCC)c1=O,53,91,0.107,31,0.00692
CCCn1c(=O)c2[nH]c(-c3ccc(OCC(=O)Nc4ccccc4)cc3)cc2n(CCC)c1=O,47,92,0.224,6,0.00933
CCCn1c(=O)c2[nH]c(-c3ccc(OCC(=O)Nc4ccc(F)cc4)cc3)cc2n(C)c1=O,57,94,0.0661,47,0.00562
CCCn1c(=O)c2[nH]c(-c3ccc(OCC(=O)Nc4ccc(C(C)=O)cc4)cc3)c(Cl)c2n(CCC)c1=O,8,43,0.0851,21,0.0525
CCCn1c(=O)n(C)c(=O)c2[nH]c(-c3ccc(OCC(=O)Nc4ccc(F)cc4)cc3)cc21,43,93,0.112,24,0.00955
CCCn1c(=O)c2[nH]c(-c3ccc(OCC(=O)Nc4ccccc4O)cc3)cc2n(CCC)c1=O,56,74,0.0324,82,0.0191
CCCn1c(=O)c2[nH]c(-c3ccc(OCC(=O)Nc4ccccc4)cc3)cc2n(C)c1=O,38,91,0.17,18,0.0123
Cn1c(=O)c2[nH]c(-c3ccc(OCC(=O)NC4CCCC4)cc3)cc2n(C)c1=O,20,57,0.692,8,0.0794
Cn1c(=O)c2[nH]c(-c3ccc(OCC(=O)NCc4ccc(F)cc4)cc3)cc2n(C)c1=O,36,95,0.0437,56,0.017
CCn1c(=O)c2[nH]c(-c3ccc(OCC(=O)Nc4ccccc4)cc3)cc2n(CC)c1=O,45,91,0.186,22,0.00776
CCCn1c(=O)c2[nH]c(-c3ccc(OC(C)C(=O)NCc4ccc(Cl)cc4)cc3)cc2n(CCC)c1=O (stereo not given),55,94,0.0468,57,0.00407
CCCn1c(=O)c2[nH]c(-c3ccc(OCC(=O)Nc4cc(OC)nc(OC)n4)cc3)cc2n(CCC)c1=O,30,80,0.0891,41,0.011

SMILES,inhibition [1] [%],inhibition [2] [%],Ki (Adenosine receptor A2a [3]) [µM],inhibition (Adenosine receptor A2a [4]) [%],Ki (Adenosine receptor A2b) [µM]
CCCn1c(=O)c2[nH]c(-c3ccc(OCC(=O)Nc4ccc(C(C)(C)C)cc4)cc3)cc2n(CCC)c1=O,51,94,0.0794,47,0.00794
CCCn1c(=O)c2[nH]c(-c3ccc(OCC(=O)Nc4ccc(I)cc4)cc3)cc2n(CCC)c1=O,30,80,0.158,57,0.0195
CCCn1c(=O)c2[nH]c(-c3ccc(OCC(=O)NCc4ccc(F)cc4)cc3)c(Cl)c2n(CCC)c1=O,8,25,0.049,44,0.174
COc1cccc(CNC(=O)COc2ccc(-c3cc4c([nH]3)c(=O)n(C)c(=O)n4C)cc2)c1,15,61,0.331,11,0.0513
Cn1c(=O)c2[nH]c(-c3ccc(OCC(=O)NC4CCc5ccccc54)cc3)cc2n(C)c1=O (stereo not given),30,74,0.214,20,0.0224
CC(Oc1ccc(-c2cc3c([nH]2)c(=O)n(C)c(=O)n3C)cc1)C(=O)Nc1ccc(Br)cc1 (stereo not given),89,93,0.0269,77,0.00155
CCCn1c(=O)c2[nH]c(-c3ccc(OCC(=O)Nc4ccc(Br)cc4)cc3)cc2n(CCC)c1=O,66,97,0.0309,54,0.00219
CCCn1c(=O)c2[nH]c(-c3ccc(OCC(=O)Nc4ccc(O)cc4)cc3)cc2n(CCC)c1=O,24,79,0.0562,51,0.0347
CCCn1c(=O)c2[nH]c(-c3ccc(OCC(=O)Nc4ccc(F)cc4)cc3)c(Br)c2n(CCC)c1=O,30,72,0.02,70,0.0126
CCCn1c(=O)c2[nH]c(-c3ccc(OC(C)C(=O)Nc4ccc(F)cc4)cc3)cc2n(CCC)c1=O (stereo not given),62,88,0.0589,51,0.00324
Cn1c(=O)c2[nH]c(-c3cccc(OCC(=O)Nc4ccccc4)c3)cc2n(C)c1=O,10,35,0.204,32,0.166
CCCn1c(=O)c2[nH]c(-c3ccc(OCC(=O)Nc4ccc(CC(=O)O)cc4)cc3)cc2n(CCC)c1=O,14,87,0.224,28,0.0339
CCCn1c(=O)c2[nH]c(-c3ccc(OCC(=O)Nc4ccc(NC(C)=O)cc4)cc3)cc2n(CCC)c1=O,23,70,0.0631,40,0.0138
COc1cc(-c2cc3c([nH]2)c(=O)n(C)c(=O)n3C)ccc1OCC(=O)Nc1ccccc1,10,27,0.302,20,0.148
CN(Cc1ccccc1)C(=O)COc1ccc(-c2cc3c([nH]2)c(=O)n(C)c(=O)n3C)cc1,10,67,1.02,14,0.055
COc1cc(-c2cc3c([nH]2)c(=O)n(C)c(=O)n3C)ccc1OCC(=O)Nc1ccc(F)cc1,10,45,0.0457,35,0.145
CCCn1c(=O)c2[nH]c(-c3ccc(OCC(=O)Nc4ccc(C)cn4)cc3)cc2n(CCC)c1=O,40,85,0.275,29,0.0126
CCCn1c(=O)c2[nH]c(-c3ccc(OCC(=O)Nc4ncccc4O)cc3)cc2n(CCC)c1=O,37,82,0.324,32,0.0209
CCCn1c(=O)c2[nH]c(-c3ccc(OCC(=O)NCc4ccccc4)cc3)c(Cl)c2n(CCC)c1=O,10,47,0.0603,43,0.0832
CCCn1c(=O)c2[nH]c(-c3ccc(OCC(=O)Nc4ccc(F)cc4)cc3)cc2n(CCC)c1=O,70,96,0.012,62,0.00331
